How the values were obtained:
tumor = system: tumor; parameters: method as in PMID 18974148; settings: 2 mg/kg (body weight), three weeks of treatment; cited from earlier work
[1] = system: non-tumorigenic prostate epithelial cells (RWPE-1); settings: cited from earlier work
[2] = system: refractory invasive prostate cancer cells (DU145); parameters: method as in PMID 18974148; settings: cited from earlier work
MDA-MB-231 spheroids = assay: 3D-cell culture (spheroids), morphology and acid phosphatase viability, MDA-MB-231; assay type: cell-based, human; settings: 25 µM, vs control, p < 0.05
Source text: 3D-cell cultures display features that resemble in vivo tumors: due to their tridimensional structure, cells are not provided with the same amounts of oxygen and nutrients in the center as on the surface, resulting in a gradient that leads to the formation of a necrotic core, similar to the in vivo tumor environment. In the 3D-cell culture model used here, spheroids are formed due to low interaction with the microplate bottom, promoted by its coating with agarose, and strong cell-to-cell interactions in MCF-7 cells, generating a finely compact and homogeneous spheroid. For MDA-MB-231 cells, the addition of collagen I is an extra stimulus necessary for spheroid stabilization. Spheroids were prepared and grown for 48 h and then treated with the compounds at 25 µM. After 48 h, morphological changes were observed, and their viabilities were measured as described in Section 3. […] These findings are in line with the viability test, which detected a reduction in the viabilities for all of them, which is significant compared to the control (p < 0.05), except for 11a in MDA-MB-231 spheroids (Figure 8C,D). […]
The procedure was performed as described by Gong et al., with a few modifications. […] The cell spheroids/aggregates were treated with fresh medium added to the compounds and their viability was evaluated after 48 h. […]

MCF-7 spheroids = assay: 3D-cell culture (spheroids), morphology and acid phosphatase viability, MCF-7; assay type: cell-based, human; settings: 25 µM, 48 h
Source text: 3D-cell cultures display features that resemble in vivo tumors: due to their tridimensional structure, cells are not provided with the same amounts of oxygen and nutrients in the center as on the surface, resulting in a gradient that leads to the formation of a necrotic core, similar to the in vivo tumor environment. In the 3D-cell culture model used here, spheroids are formed due to low interaction with the microplate bottom, promoted by its coating with agarose, and strong cell-to-cell interactions in MCF-7 cells, generating a finely compact and homogeneous spheroid. For MDA-MB-231 cells, the addition of collagen I is an extra stimulus necessary for spheroid stabilization. Spheroids were prepared and grown for 48 h and then treated with the compounds at 25 µM. After 48 h, morphological changes were observed, and their viabilities were measured as described in Section 3. The exposure to the compounds for 48 h promoted visible changes in the morphologies of spheroids for both cell lines when compared to the controls (Figure 8). […] While it is more complicated to imply changes in the proliferative (surface) region of the MDA-MB-231 spheroids (Figure 8B), they are observed together with morphological changes after treatment, making them appear more crumbly and lose their round shape. These findings are in line with the viability test, which detected a reduction in the viabilities for all of them, which is significant compared to the control (p < 0.05), except for 11a in MDA-MB-231 spheroids (Figure 8C,D). We should also highlight that the concentrations necessary for an effect on spheroids are expected to be higher when compared to 2D-cell culture models. Here, we observed changes using 25 µM of each compound, as performed in the other experiments.
The procedure was performed as described by Gong et al., with a few modifications. A total of 5000 cells per well were plated on 96-well plates with bottoms previously covered with 50 µL of a 1% agarose solution. The plates were then centrifuged at 300× g for 10 min. For MDA-MB-231 cells, collagen I from rat tail (Gibco) was added to a 3 µg/mL final concentration in the cell suspension. […] The cell spheroids/aggregates were treated with fresh medium added to the compounds and their viability was evaluated after 48 h. Spheroids were photographed with an inverted microscope Bel INV-100 (Bel Engineering, Monza, Italy) equipped with a digital camera.
To measure spheroids viability, this viability assay was performed following Friedrich et al.. The medium was removed from wells and spheroids were washed with PBS. Then, 100 µL of a solution containing 2 mg/mL p-nitrophenyl phosphate (PNPP), 0.1 M citric acid, and 0.1% (v/v) Triton X, pH 5.0 were added. […]

MDA-MB-231 cells = assay: Clonogenic assay, MDA-MB-231; assay type: cell-based, human; settings: 25 µM, 24 h treatment, about 14 days growth
Source text: The clonogenic assay is an effective tool for investigating individual cells’ ability to form colonies. Tumor cells with the ability to generate an expanding family of descendants are clonogenic. Therefore, a clonogenic assay is a simple method to verify one of the important characteristics of cancer cells, which is the ability to detach from the site of origin and to form metastases in other locations. […] For instance, 90–99% of the tumor cells in FaDU tumors, a type of human squamous cell carcinoma observed in nude mice, are non-clonogenic. To achieve the main goal of cancer treatment, which is tumor eradication, it is necessary to inactivate all clonogenic cells through either cell killing or the induction of a permanent state of dormancy, thereby eliminating their clonogenic capacity. The assessment of the potential of a drug to achieve a curative outcome, i.e., effectively neutralizing clonogenic tumor cells, requires the utilization of experimental endpoints that accurately reflect the response of clonogenic cells. Clonogenic endpoints hold particular significance when novel anticancer agents are incorporated into curative therapeutic regimens, such as in combination with radiotherapy or chemotherapy. Thus, clonogenic assays were conducted for compounds 11a–f and 1,4-naphthoquinone.
Figure 6 The inhibition of colony formation by compounds 11a–f using MCF-7 (A,C) and MDA-MB-231 (B,D) cell lines. Cells were treated with derivatives 11a–f at 25 µM for 24 h. Subsequently, 400 cells were plated on 6-well plates for approximately 14 days. Then, cells were stained with crystal violet dye to visualize the colonies formed.

MCF10A = assay: MTT cell viability assay, non-tumor MCF10A
MCF-7 cells = assay: Annexin V/PI apoptosis assay, MCF-7; assay type: cell-based, human; settings: 50 µM
Protocol: We investigated apoptosis induction through the annexin V/PI protocol, as described in Section 3. Doxorubicin, 1,4-naphthoquinone, and cisplatin were used as controls. […] For MDA-MB-231 cells (Figure 5B), the effects observed were more prominent at the concentrations tested.
For the apoptosis assay, the manufacturer’s instructions were followed (Dead Cell Apoptosis Kit with Annexin V for Flow Cytometry, Thermo Fisher Scientific, MA, USA). The cells were analyzed in a Countess II FL cell counter (Thermo Fisher Scientific, Waltham, MA, USA).
Figure 5 Naphthoquinone-quinolone hybrids induce apoptosis in MCF-7 (A) and MDA-MB-231 (B) cells at different levels.

MDA-MB-231 = assay: MTT cell viability assay, MDA-MB-231 (2D culture); assay type: cell-based, human
Protocol: (§1) Our first approach to assessing the anticancer activity of the novel 1,4-naphthoquinone/4-quinolone conjugates 11a–f on breast cancer cells involved comparing their effects in the MTT cell viability assay to determine the half-maximal inhibitory concentration (IC50) in the 2D cell culture model. Doxorubicin and 1,4-naphthoquinone were used as controls. Concentration-response curves were obtained with the conjugates at concentrations ranging from 0 to 200 µM. […] This observation aligns with the structural characteristics of this derivative, which features the largest alkyl substituent at position R^1.
(§2) The IC50 values were calculated using GraphPad Prism v. 8.0.1, and the selectivity index was estimated as the ratio between the IC50 value of MCF10A/IC50 value of MDA-MB-231 or MCF-7 [33], for each compound.

MCF-7 = assay: MTT cell viability assay, MCF-7 (2D culture); assay type: cell-based, human
Protocol: as §1, §2

| IC50 (MDA-MB-231; Homo sapiens, MDA-MB-231, MTT, 24 h treatment, 2D culture, read-out: IC50 ± SEM MDA-MB-231) | IC50 (MCF-7; Homo sapiens, MCF7, MTT, 24 h treatment, 2D culture, read-out: IC50 ± SEM MCF-7) | SMILES | tumor reduction (tumor) | effect on RWPE-1 [1] | apoptosis induction in DU145 [2] | spheroid viability (acid phosphatase), MDA-MB-231 (MDA-MB-231 spheroids) | spheroid morphology, MCF-7 (MCF-7 spheroids) | colony formation, MDA-MB-231 (MDA-MB-231 cells) | IC50 (MCF10A; Homo sapiens, MCF-10A, 24 h, read-out: IC50 ± SEM MCF10A) | cytotoxicity effect in MCF10A compared with doxorubicin (MCF10A; relative to doxorubicin) | early apoptosis induction (annexin V/PI), MCF-7 (MCF-7 cells) | SI IC50 MCF10A/ IC50 MDA-MB-231 (MDA-MB-231; selectivity index) | SI IC50 MCF10A/IC50 MCF-7 (MCF-7; selectivity index) |
| --- | --- | --- | --- | --- | --- | --- | --- | --- | --- | --- | --- | --- | --- |
|  |  | CC1=CC(=O)c2c(O)cccc2C1=O [plumbagin] | 90% | without affecting | selectively induces apoptosis |  |  |  |  |  |  |  |  |
| 9.16 ± 1 µM | 18.7 ± 1.1 µM | CCOC(=O)c1cn(CC)c2ccc(C3=CC(=O)c4ccccc4C3=O)cc2c1=O [Compound 11a, Ethyl 6-(1,4-dioxo-1,4-dihydronaphthalen-2-yl)-1-ethyl-4-oxo-1,4-dihydroquinoline-3-carboxylate] |  |  |  | significant decrease was observed for all compounds, except for 11a | changes in the morphology | most effective | 10.6 ± 1.2 µM | seven times lower | comparable | 1.15 ± 0.15 | 0.57 ± 0.12 |

— publication PMC11203957, “Naphthoquinone-Quinolone Hybrids with Antitumor Effects on Breast Cancer Cell Lines—From the Synthesis to 3D-Cell Culture Effects” (International Journal of Molecular Sciences, 2024)
